Results reported in US10188693B2, “Methods for treatment of atherosclerosis” (Stealth BioTherapeutics Corp, priority 2012, dated 2019).
Several values for one entry are separate records, joined by “and”; a condition that tells them apart may be missing. Equal values may be shown once. Entries after “also recorded” stand apart in the source; their conditions may differ.

How the values were obtained:
[1] = system: Apoprotein E deficient mice; assay: Plasma lipid analysis using an autoanalyzer (TC, Trigs, PL, FC, CE by calculation); type: in vivo; set-up: TC, plasma / FC, plasma / CE, plasma / Trigs, plasma / PL, plasma / TC / FC / CE / Trigs / PL: unit not given here; conditions: for CE: plasma cholesterol ester; for FC: plasma free cholesterol; for PL: plasma phospholipid; for TC: plasma total cholesterol; for Trigs: plasma triglycerides
Source text: (§1) Apoprotein E deficient mice (Jackson Laboratories, 600 Main Street, Bar Harbor, Me.) were used in this study. The mice were male, 7-8 weeks of age, and between 18-20 g in weight. An initial total cholesterol measurement was made on 30 mice, and the mice were grouped into two groups of 15 to match the total cholesterol measurements. Both groups were fed a “western diet” (40 kcal % butterfat, 0.15% [wt/wt] cholesterol, Harlan Teklad diet TD-88137). Starting at t=0, the control group of 15 mice received vehicle only (phosphate buffered saline at pH 7.4), while the test group of 15 mice received aromatic-cationic peptide reconstituted in phosphate buffered saline. Body weights of the mice were recorded weekly, and mortality checks were performed daily.
(§2) The aromatic-cationic peptide D-Arg-2′6′-Dmt-Lys-Phe-NH2 (sterile lyophilized powder, reconstituted in phosphate buffered saline) was tested. For the 12-week study, test mice received a single, daily dose of the peptide, subcutaneously at 1 mg/kg. Control mice received a single daily dose of vehicle.
Experimental Protocol/Data Collection. Blood was collected every four weeks (orbital plexis) under isoflurane anesthesia (3%) and blood lipids were determined. Plasma lipid analysis was conducted for both groups at t=0, 4, […], 8, and 12 weeks. Plasma lipid analysis using an autoanalyzer included total cholesterol (TC), triglycerides (Trigs), phospholipids (PL), free cholesterol (FC), and cholesterol ester (CE, by calculation). Gel electrophoresis was used to measure levels of high-density lipoprotein cholesterol (HDL-C), low-density lipoprotein cholesterol (LDL-C), and very low-density lipoprotein cholesterol (VLDL-C).

[2] = system: Apoprotein E deficient mice; assay: En face analysis of atherosclerotic lesions of the thoracic aorta (Sudan IV, % of aortic surface covered by lipid); type: in vivo; conditions: 12 weeks
Source text: as §1, §2
Histopathology/Histomorphometery: Following the 12 week treatment, mice were euthanized within 48 hours after the last dose by CO2 asphyxiation and the vascular tree was perfused with 5 mL of phosphate buffered saline (pH 7.4). The aorta and aortic sinus were removed for examination. Thoracic aorta were isolated, trimmed of fat, and fixed in formalin for 48-72 hours before analysis. For en face analysis, aortas were laid out and pinned on black matrix for photography, and stained with Sudan IV. Vessels were imaged for surface involvement using a Nikon computerized image analysis system and the percent of the aortic surface area covered by lipid was calculated. Two determinations were done for each image (Quan 1 and Quan 2), and the average was computed. The data were then computed by group and statistically analyzed. Following staining and morphometric analysis, total lipids were extracted from the aortas using the Bligh-Dyer method. WAKO Diagnostics kits (WAKO Diagnostics, Inc., 1600 Bellwood Road Richmond, Va. 23237-1326) were then used to evaluate total cholesterol, free cholesterol, and cholesterol ester. Cholesterol leves were quantitate nad expressed relative to protein levels. Values are expressed as μg lipid per mg protein (see e.g., FIG. 1).

[3] = at 4, 8 and 12 week time points, versus vehicle
[4] = week 4, individual test mouse (sample #16-30), listed as aromatic-cationic peptide
[5] = week 8, individual test mouse (sample #16-30), listed as aromatic-cationic peptide
[6] = week 12, AVE of 15 test animals
[7] = week 12, individual test mouse (sample #16-30), listed as aromatic-cationic peptide
[8] = individual mouse, 1 mg/kg subcutaneously daily, western diet, 1 mg/kg

Substance: D-Arg-2′6′-Dmt-Lys-Phe-NH2
- plasma free cholesterol, in words [1, 3]: reduces
- plasma phospholipid levels, in words [1, 3]: reduces
- plasma total cholesterol, in words [1, 3]: reduces
- plasma triglycerides, in words [1, 3]: reduces
- CE ([1]; week 4, AVE of 15 test animals): 610
- CE [1, 4]: 491 and 580 and 622 and 731 and 626 and 417 and 574 and 660 and 515 and 536 and 630 and 761 and 581 and 732 and 701
- CE ([1]; week 8, AVE of 15 test animals): 932
- CE [1, 5]: 940 and 710 and 1119 and 865 and 1153 and 653 and 714 and 1085 and 715 and 670 and 1073 and 1048 and 839 and 1130 and 1267
- CE [1, 6]: 681
- CE [1, 7]: 607 and 335 and 597 and 640 and 1002 and 477 and 445 and 476 and 675 and 687 and 960 and 869 and 339 and 904 and 1201
- FC ([1]; week 4, AVE of 15 test animals): 387
- FC [1, 4]: 308 and 344 and 354 (2×) and 408 and 412 and 256 and 366 and 386 and 320 and 286 and 396 and 462 and 516 and 636
- FC ([1]; week 8, AVE of 15 test animals): 350
- FC [1, 5]: 322 and 294 (2×) and 386 and 318 and 392 and 290 and 388 and 308 (2×) and 286 and 362 and 366 and 404 and 530
- FC [1, 6]: 322
- FC [1, 7]: 291 and 205 and 287 and 296 and 418 and 242 and 229 and 269 and 315 and 312 and 419 and 386 and 219 and 413 and 535
- PL ([1]; week 4, AVE of 15 test animals): 514
- PL [1, 4]: 422 and 482 and 452 and 560 and 526 and 320 and 506 and 556 and 446 and 416 and 516 and 580 and 510 and 666 and 750
- PL ([1]; week 8, AVE of 15 test animals): 493
- PL [1, 5]: 416 and 456 and 474 and 448 and 516 (2×) and 424 and 480 and 488 and 436 and 440 and 556 and 470 and 540 and 728
- PL [1, 6]: 434
- PL [1, 7]: 366 and 318 and 320 and 432 and 491 and 321 and 363 and 394 and 374 and 423 and 536 and 521 and 340 and 575 and 741
- TC ([1]; week 4, AVE of 15 test animals): 997
- TC [1, 4]: 799 and 924 and 976 and 1139 and 1038 and 673 and 940 and 1046 and 835 and 822 and 1026 and 1223 and 935 and 1248 and 1337
- TC ([1]; week 8, AVE of 15 test animals): 1282
- TC [1, 5]: 1262 and 1004 and 1505 and 1183 and 1545 and 943 and 1008 and 1473 and 1023 and 956 and 1435 and 1414 and 1147 and 1534 and 1797
- TC [1, 6]: 1003
- TC [1, 7]: 898 and 540 and 884 and 937 and 1420 and 719 and 674 and 745 and 990 and 999 and 1379 and 1255 and 558 and 1317 and 1736
- Trigs ([1]; week 4, AVE of 15 test animals): 58
- Trigs [1, 4]: 18 (2×) and 39 and 28 and 85 and 59 (2×) and 46 and 108 and 33 and 44 (2×) and 67 and 80 and 144
- Trigs ([1]; week 8, AVE of 15 test animals): 57
- Trigs [1, 5]: 34 (3×) and 31 (2×) and 51 (2×) and 48 and 53 and 43 and 75 and 63 and 39 and 67 and 195
- Trigs [1, 6]: 55
- Trigs [1, 7]: 27 and 49 and 10 and 37 (2×) and 18 and 39 (2×) and 13 and 25 and 74 and 89 and 97 and 112 and 158
- Ave (average % of the surface of the aortas showing lesions) ([2]; group average of 15 test mice, 1 mg/kg subcutaneously daily): 5.328%
- Ave. % of Lesion ([2]; individual mouse, average of Quan 1 and Quan 2, 1 mg/kg subcutaneously daily, 1 mg/kg): 2.615% and 0.892% and 9.027% and 3.019% and 7.009% and 4.833% and 1.996% and 1.205% and 9.948% and 2.763% and 6.814% and 4.734% and 0.834% and 11.239% and 12.990%
- Quan 1 (first determination of % of the aortic surface covered by lipid) [2, 8]: 2.562% and 0.914% and 8.769% and 2.832% and 7.137% and 5.198% and 2.128% and 1.388% and 10.000% and 2.990% and 7.091% and 4.700% and 0.775% and 11.589% and 13.857%
- Quan 2 (second determination of % of the aortic surface covered by lipid) [2, 8]: 2.667% and 0.870% and 9.284% and 3.205% and 6.881% and 4.468% and 1.863% and 1.021% and 9.895% and 2.536% and 6.536% and 4.768% and 0.892% and 10.888% and 12.122%
- atherosclerotic lesions in the aorta (% lesion area), in words ([2]; treated versus vehicle, listed as aromatic-cationic peptide): reduces; also recorded: lower
